Holding throughout (experiment): Peg3 promoter luciferase inhibitors, potency, dose response, cell-based, HeLa, CREF/GAPDH counter-screen panel (AID 624167)
A general note: The purpose of a counterscreen is to sort out artefacts and off-target activity.

Assay [1] deals with PEG-3. Conditions: HeLa PEG-Prom luciferase reporter, overnight, CREF/GAPDH counter-screens. Background: A reporter such as luciferase makes a cellular process visible.
A further assay has as its system Rat fibroblasts (CREF). To be noted: CREF/GAPDH counter-screens.
Assay [2] deals with PEG-3 (UniProt Q6IN02). Conditions: HeLa PEG-Prom luciferase reporter, overnight, CREF/GAPDH counter-screens, mean of runs.
The mark [3] stands for this setting: run 1, dose range 1, individual replicate IC50 per panel.
Where [4] appears, read: run 2, dose range 1, individual replicate IC50 per panel.

Molecules are shown by their SMILES. Activity calls are given as the source filed them.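 Rule for the calls: active = mean IC50 for reducing PEG3 promoter reporter signal at or below a set limit, with IC50 above the limit in both counter screens; inactive = the rest, including counter screen hits.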

Chain of PEG-3 (UniProt Q6IN02) (Q6IN02 whole entry, looked up): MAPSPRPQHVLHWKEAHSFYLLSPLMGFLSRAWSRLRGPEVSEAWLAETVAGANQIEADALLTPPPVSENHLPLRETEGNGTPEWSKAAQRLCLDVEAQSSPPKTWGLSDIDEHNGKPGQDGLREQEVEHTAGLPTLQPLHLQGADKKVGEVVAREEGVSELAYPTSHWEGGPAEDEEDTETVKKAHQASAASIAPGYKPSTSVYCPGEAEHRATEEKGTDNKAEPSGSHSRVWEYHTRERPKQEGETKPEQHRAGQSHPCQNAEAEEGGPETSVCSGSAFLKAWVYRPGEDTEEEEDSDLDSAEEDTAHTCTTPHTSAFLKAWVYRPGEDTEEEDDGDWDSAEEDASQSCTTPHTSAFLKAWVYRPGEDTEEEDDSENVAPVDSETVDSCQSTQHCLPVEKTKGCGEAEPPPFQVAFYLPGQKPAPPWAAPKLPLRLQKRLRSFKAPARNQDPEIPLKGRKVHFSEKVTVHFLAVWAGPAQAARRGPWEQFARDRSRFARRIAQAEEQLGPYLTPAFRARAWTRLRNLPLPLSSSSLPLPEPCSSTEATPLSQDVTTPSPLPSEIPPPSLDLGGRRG

Regarding `O=C(Nc1ccccn1)c1cc2ccccc2o1`, the IC50 (commonly the point on the concentration scale where inhibition reaches its midpoint) with PEG-3 [1] (setting [3]) was 5060 nM; in the assay with PEG-3 [1] (setting [4]), 4010 nM; in the assay on Rat fibroblasts (CREF) (mean of runs), 1820 nM; in the assay with Rat fibroblasts (CREF) (setting [3]) it was 1350 nM; in the assay with Rat fibroblasts (CREF) (setting [4]), 2290 nM; on PEG-3 [2] it was 4.54 µM.
On to `Nc1ccc(-c2nc3ccc(C(=O)O)cc3s2)cc1`, for which the IC50 in the assay with PEG-3 [1] (setting [3]) is 440 nM; in the assay with PEG-3 [1] (setting [4]), 286 nM; with Rat fibroblasts (CREF) (mean of runs), 6030 nM; in the assay on Rat fibroblasts (CREF) (setting [3]), 6250 nM; in the assay with Rat fibroblasts (CREF) (setting [4]), 5810 nM; at PEG-3 [2] it was 0.363 µM.
On to `CN(C)c1ccc(/C=C(\C#N)c2ccccn2)cc1`, for which the IC50 with PEG-3 [1] (setting [3]) is 4250 nM; in the assay on PEG-3 [1] (setting [4]), 4380 nM; in the assay on Rat fibroblasts (CREF) (mean of runs) it was 639 nM; with Rat fibroblasts (CREF) (setting [3]), 531 nM; with Rat fibroblasts (CREF) (setting [4]) it was 747 nM; at PEG-3 [2], 4.32 µM.
With `Cc1cc(C(=O)COC(=O)c2ccccc2O)c(C)n1CC1CCCO1` (configuration not stated), the half-maximal inhibitory concentration (IC50) with PEG-3 [1] (setting [3]) is 1240 nM; with PEG-3 [1] (setting [4]), greater than 100000 nM; in the assay on Rat fibroblasts (CREF) (mean of runs), 3390 nM; in the assay with Rat fibroblasts (CREF) (setting [3]) it was 3340 nM; with Rat fibroblasts (CREF) (setting [4]), 3440 nM. Moreover, the IC50 entry at PEG-3 [2] is “inactive”.
Consider `CCC(=O)NC(c1cccs1)c1cc(Cl)c2cccnc2c1O` (configuration not stated), for which the IC50 in the assay with PEG-3 [1] (setting [3]) was 4970 nM; in the assay on PEG-3 [1] (setting [4]) it was 4390 nM; in the assay on Rat fibroblasts (CREF) (mean of runs) it was 842 nM; in the assay on Rat fibroblasts (CREF) (setting [3]) it was less than 100000 nM; in the assay on Rat fibroblasts (CREF) (setting [4]), 842 nM; on PEG-3 [2] it was 4.68 µM.
As to `Cc1ccc2oc(/N=C(\N)NC(=O)C(C)(C)C)nc2c1`, the IC50 is 725 nM in the assay on PEG-3 [1] (setting [3]); greater than 100000 nM in the assay on PEG-3 [1] (setting [4]); 2990 nM in the assay on Rat fibroblasts (CREF) (mean of runs); 412 nM with Rat fibroblasts (CREF) (setting [3]); 5570 nM in the assay with Rat fibroblasts (CREF) (setting [4]). The IC50 result on PEG-3 [2] was “inactive”.
On to `COc1ccc(/C=C/c2nc3ccccc3n2C)cc1`, for which the concentration for half-maximal inhibition (IC50) in the assay on PEG-3 [1] (setting [3]) was 1280 nM; in the assay on PEG-3 [1] (setting [4]), 2540 nM; with Rat fibroblasts (CREF) (mean of runs) it was 3460 nM; with Rat fibroblasts (CREF) (setting [3]) it was 3410 nM; in the assay on Rat fibroblasts (CREF) (setting [4]), 3510 nM; on PEG-3 [2] it was 1.91 µM.
On to `O=C(Nc1ccc(N2CCOCC2)cc1)c1cnsn1`, for which the IC50 was 2800 nM in the assay on PEG-3 [1] (setting [3]); 1470 nM in the assay with PEG-3 [1] (setting [4]); 2590 nM in the assay on Rat fibroblasts (CREF) (mean of runs); 2510 nM in the assay on Rat fibroblasts (CREF) (setting [3]); 2680 nM in the assay on Rat fibroblasts (CREF) (setting [4]); 2.13 µM at PEG-3 [2].
As to `COc1ccc(-c2cc3nc(C)n(N)c(=O)c3s2)cc1`, the IC50 in the assay on PEG-3 [1] (setting [3]) was 657 nM; in the assay on PEG-3 [1] (setting [4]), 288 nM; in the assay on Rat fibroblasts (CREF) (mean of runs), 1090 nM; with Rat fibroblasts (CREF) (setting [3]), 1010 nM; in the assay on Rat fibroblasts (CREF) (setting [4]), 1160 nM; on PEG-3 [2], 0.473 µM.
For `O=C(CN1C(=O)c2ccccc2S1(=O)=O)c1ccc2c(c1)OCCO2`, the IC50 in the assay with PEG-3 [1] (setting [3]) was 730 nM; in the assay on PEG-3 [1] (setting [4]), 415 nM; with Rat fibroblasts (CREF) (mean of runs), 1610 nM; in the assay on Rat fibroblasts (CREF) (setting [3]) it was 1280 nM; in the assay with Rat fibroblasts (CREF) (setting [4]), 1940 nM; on PEG-3 [2] it was 0.573 µM.
For the compound `Cc1ccc(-c2cc3c(nn2)-c2ccccc2C3=O)cc1`, the IC50 was 2560 nM in the assay with PEG-3 [1] (setting [3]); 2950 nM in the assay with PEG-3 [1] (setting [4]); 337 nM in the assay on Rat fibroblasts (CREF) (mean of runs); 270 nM in the assay on Rat fibroblasts (CREF) (setting [3]); 403 nM with Rat fibroblasts (CREF) (setting [4]); 2.76 µM at PEG-3 [2].
As to `O=C(N/N=C/c1cccs1)c1n[nH]c2c1CCCC2`, the IC50 was 3450 nM in the assay on PEG-3 [1] (setting [3]); 6930 nM in the assay with PEG-3 [1] (setting [4]); 6000 nM in the assay on Rat fibroblasts (CREF) (mean of runs); 5100 nM in the assay with Rat fibroblasts (CREF) (setting [3]); 6910 nM in the assay with Rat fibroblasts (CREF) (setting [4]); 5.19 µM at PEG-3 [2].
In the case of `C/C(=N/NC(=O)c1cc(C2CC2)[nH]n1)c1cccs1`, the IC50 was 5930 nM in the assay with PEG-3 [1] (setting [3]); 7690 nM with PEG-3 [1] (setting [4]); 3840 nM in the assay with Rat fibroblasts (CREF) (mean of runs); 3850 nM with Rat fibroblasts (CREF) (setting [3]); 3830 nM with Rat fibroblasts (CREF) (setting [4]); 6.81 µM at PEG-3 [2].
For `CC(=O)NC(c1ccc(N(C)C)cc1)c1cc(Cl)c2cccnc2c1O` (configuration not stated), the IC50 in the assay with PEG-3 [1] (setting [3]) was 3140 nM; in the assay with PEG-3 [1] (setting [4]) it was 4370 nM; with Rat fibroblasts (CREF) (mean of runs), 53700 nM (inactive); in the assay on Rat fibroblasts (CREF) (setting [3]) it was greater than 100000 nM; in the assay with Rat fibroblasts (CREF) (setting [4]) it was 7340 nM; on PEG-3 [2], 3.76 µM.
As to `CCC1(OC(=O)CN)C(=O)OCc2c1cc1n(c2=O)Cc2cc3ccccc3nc2-1` (configuration not stated), the IC50 with PEG-3 [1] (setting [3]) was 3800 nM; in the assay with PEG-3 [1] (setting [4]), 2880 nM; with Rat fibroblasts (CREF) (mean of runs), 1380 nM; in the assay on Rat fibroblasts (CREF) (setting [3]), 1070 nM; in the assay on Rat fibroblasts (CREF) (setting [4]) it was 1690 nM; on PEG-3 [2], 3.34 µM.
Turning to `COc1ccc(C(=O)CN2C(=O)c3ccccc3S2(=O)=O)cc1`, the IC50 in the assay with PEG-3 [1] (setting [3]) is 2960 nM; in the assay on PEG-3 [1] (setting [4]), 3590 nM; with Rat fibroblasts (CREF) (mean of runs), 3150 nM; in the assay with Rat fibroblasts (CREF) (setting [3]), 3260 nM; in the assay on Rat fibroblasts (CREF) (setting [4]), 3040 nM; at PEG-3 [2] it was 3.28 µM.
For the compound `O=C(NC1=NCCS1)C1COc2ccccc2O1` (configuration not stated), the IC50 with PEG-3 [1] (setting [3]) was 1360 nM; in the assay with PEG-3 [1] (setting [4]), 2390 nM; with Rat fibroblasts (CREF) (mean of runs) it was 15100 nM; in the assay on Rat fibroblasts (CREF) (setting [3]), 14500 nM; with Rat fibroblasts (CREF) (setting [4]), 15700 nM; on PEG-3 [2] it was 1.88 µM.

For the origin of these results see PubChem BioAssay AID624167 (Sanford-Burnham Center for Chemical Genomics, 2012).
